According to US4861788A, “Antibacterial 1-normon-2-yl-heterocyclic compounds” (Beecham Group plc, priority 1983, dated 1989):
Converted amounts (≈) assume the structure as drawn. Like-named read-outs stand apart in the source and are kept apart here.

Experiments:
Past. haemolytica PA5 = assay: MIC against veterinary bacteria in vitro (Diagnostic Sensitivity Test Agar); conditions: Mannheimia haemolytica, PA5, 18 h
Protocol: (§2) The activity of the normonyl derivatives of the Examples against various veterinarily important bacteria, was assayed in vitro using two-fold serial dilutions in Diagnostic Sensitivity Test Agar inoculated with 10^4 organisms.

S. dublin S7 = assay: as above; conditions: Salmonella enterica, S7, 18 h
Protocol: as §2

Staph. aureus Russell = assay: MIC against human bacteria in vitro (nutrient agar, chocolated horse blood); assay type: cell-based; conditions: Staphylococcus aureus
Protocol: (§1) The activity of the normonyl derivaties of the Examples against various bacteria which are important in diseases of humans, was assayed in vitro using serial dilutions in nurient agar with 5% chocolated horse blood.

Bacillus subtilis 6633 = assay: as above; assay type: cell-based
Protocol: as §1

K. aerogenes A = assay: as above; assay type: cell-based; conditions: Klebsiella aerogenes, 18 h
Protocol: as §1

Strep. faecalis I = assay: as above; assay type: cell-based; conditions: Enterococcus faecalis, 18 h
Protocol: as §1

Sarcina lutea 8340 = assay: as above; assay type: cell-based; conditions: Micrococcus luteus, 8340, 18 h
Protocol: as §1

Staph. aureus W2827 = assay: as above; assay type: cell-based; conditions: Staphylococcus aureus
Protocol: as §1

[1] = tested on: Neisseria catarrhalis 1502; assay: as above; assay type: cell-based
Protocol: as §1

[2] = tested on: Pasteurella multocida 1633; assay: as above; assay type: cell-based
Protocol: as §1

Strep. spp. 64/848-C = assay: as above; assay type: cell-based
Protocol: as §1

[3] = tested on: Haemophilus influenzae Wy21; assay: as above; assay type: cell-based
Protocol: as §1

Strep. agalactiae 2788-B = assay: as above; assay type: cell-based; conditions: Streptococcus agalactiae, 2788B, 18 h
Protocol: as §1

[4] = tested on: Haemophilus influenzae Q1; assay: as above; assay type: cell-based
Protocol: as §1

Staph. aureus Oxford [5] = assay: as above; assay type: cell-based; conditions: Staphylococcus aureus
Protocol: as §1

[6] = tested on: Strep. pyogenes R80/421-A; assay: as above; assay type: cell-based; conditions: Streptococcus pyogenes, R80/421A, 18 h
Protocol: as §1

Strep. pneumoniae CN33 = assay: as above; assay type: cell-based; conditions: Streptococcus pneumoniae, CN33, 18 h
Protocol: as §1

P. mirabilis 889 = assay: as above; assay type: cell-based; conditions: Proteus mirabilis, 889, 18 h
Protocol: as §1

E. coli NCTC 10418 = assay: as above; assay type: cell-based; conditions: Escherichia coli, NCTC10418, 18 h
Protocol: as §1

[7] = tested on: Corynebacterium xerosis 9755; assay: as above; assay type: cell-based; conditions: Corynebacterium xerosis, 9755, 18 h
Protocol: as §1

[8] = tested on: Ps. aeruginosa NCTC 10662; assay: as above; assay type: cell-based; conditions: Pseudomonas aeruginosa, NCTC10662, 18 h
Protocol: as §1

E. coli ESS = assay: as above; assay type: cell-based; conditions: Escherichia coli
Protocol: as §1

Staph. aureus Oxford [9] = assay: MIC against veterinary bacteria in vitro (Diagnostic Sensitivity Test Agar); conditions: Staphylococcus aureus, 18 h
Protocol: as §2

M. hyopneumoniae NB12 = assay: MIC against Mycoplasma in vitro (Friis broth with agarose); assay type: cell-based; conditions: Mesomycoplasma hyopneumoniae
M. hyorhinis ATCC 23234 = assay: as above; assay type: cell-based; conditions: Mesomycoplasma hyorhinis, ATCC23234, 144 h
M. hyopneumoniae LABER = assay: as above; assay type: cell-based; conditions: Mesomycoplasma hyopneumoniae, 144 h
[10] = tested on: M. hyopneumoniae PW/C/210; assay: as above; assay type: cell-based; conditions: Mesomycoplasma hyopneumoniae, 144 h
M. hyopneumoniae HK (2) = assay: as above; assay type: cell-based; conditions: Mesomycoplasma hyopneumoniae, 144 h

CC(=Cc1nnc(-c2ccccc2)o1)CC1OCC(CC2OC2C(C)C(C)O)C(O)C1O (stereo not drawn) [Example 1, 2-(1-Normon-2-yl)-5-phenyl-1,3,4-oxadiazole A]
MIC (Past. haemolytica PA5): 10 µg/mL (≈ 22.5 µM) | MIC (S. dublin S7): > 80 µg/mL | MIC (Staph. aureus Russell; human, Staph. aureus Russell, 18 hours at 37° C, read-out: MIC): 25 µg/mL (≈ 56.2 µM) | MIC (Bacillus subtilis 6633; human, Bacillus subtilis 6633, 18 hours at 37° C, read-out: MIC): 5 µg/mL (≈ 11.2 µM) | MIC (K. aerogenes A): > 100 µg/mL | MIC (Strep. faecalis I): > 100 µg/mL | MIC (Sarcina lutea 8340): > 100 µg/mL | MIC (Staph. aureus W2827; human, Staph. aureus W2827, 18 hours at 37° C, read-out: MIC): 25 µg/mL (≈ 56.2 µM) | MIC ([1]; human, Neisseria catarrhalis 1502, 18 hours at 37° C, read-out: MIC): 2.5 µg/mL (≈ 5.62 µM) | MIC ([2]; human, Pasteurella multocida 1633, 18 hours at 37° C, read-out: MIC): 2.5 µg/mL (≈ 5.62 µM) | MIC (Strep. spp. 64/848-C; human, Strep. spp. 64/848-C, 18 hours at 37° C, read-out: MIC): 25 µg/mL (≈ 56.2 µM) | MIC ([3]; human, Haemophilus influenzae Wy21, 18 hours at 37° C, read-out: MIC): 2.5 µg/mL (≈ 5.62 µM) | MIC (Strep. agalactiae 2788-B): 100 µg/mL (≈ 225 µM) | MIC ([4]; human, Haemophilus influenzae Q1, 18 hours at 37° C, read-out: MIC): 2.5 µg/mL (≈ 5.62 µM) | MIC (Staph. aureus Oxford [5]; human, Staph. aureus Oxford, 18 hours at 37° C, read-out: MIC): 10 µg/mL (≈ 22.5 µM) | MIC [6]: 100 µg/mL (≈ 225 µM) | MIC (Strep. pneumoniae CN33): 100 µg/mL (≈ 225 µM) | MIC (P. mirabilis 889): > 100 µg/mL | MIC (E. coli NCTC 10418): > 100 µg/mL | MIC [7]: > 100 µg/mL | MIC [8]: > 100 µg/mL | MIC (E. coli ESS; human, E. coli ESS, 18 hours at 37° C, read-out: MIC): 10 µg/mL (≈ 22.5 µM) | MIC (Staph. aureus Oxford [9]): 5 µg/mL (≈ 11.2 µM) | MIC (M. hyopneumoniae NB12; 144 h, M. hyopneumoniae NB12, 6 days at 37° C, read-out: MIC): 2.5 µg/mL (≈ 5.62 µM) | MIC (M. hyorhinis ATCC 23234; M. hyorhinis ATCC 23234, 6 days at 37° C, read-out: MIC): 2.5 µg/mL (≈ 5.62 µM) | MIC (M. hyopneumoniae LABER; M. hyopneumoniae LABER, 6 days at 37° C, read-out: MIC): 2.5 µg/mL (≈ 5.62 µM) | MIC ([10]; M. hyopneumoniae PW/C/210, 6 days at 37° C, read-out: MIC): 2.5 µg/mL (≈ 5.62 µM)

CC(=CC(=O)NN)CC1OCC(CC2OC2C(C)C(C)O)C(O)C1O (stereo not drawn) [Example 9, Monohydrazide A]
MIC (Past. haemolytica PA5): 40 µg/mL (≈ 112 µM) | MIC (S. dublin S7): > 80 µg/mL | MIC (Staph. aureus Russell; 18 h): ≥ 100 µg/mL | MIC (Bacillus subtilis 6633; Bacillus subtilis, 6633, 18 h): ≥ 100 µg/mL | MIC (K. aerogenes A): > 100 µg/mL | MIC (Strep. faecalis I): > 100 µg/mL | MIC (Sarcina lutea 8340): > 100 µg/mL | MIC (Staph. aureus W2827; W2827, 18 h): ≥ 100 µg/mL | MIC ([1]; Neisseria, 1502, 18 h): 2.5 µg/mL (≈ 6.97 µM) | MIC ([2]; Pasteurella multocida, 1633, 18 h): 10 µg/mL (≈ 27.9 µM) | MIC (Strep. spp. 64/848-C; 18 h): ≥ 100 µg/mL | MIC ([3]; Haemophilus influenzae, WY21, 18 h): 2.5 µg/mL (≈ 6.97 µM) | MIC (Strep. agalactiae 2788-B): ≥ 100 µg/mL | MIC ([4]; Haemophilus influenzae, Q1, 18 h): 2.5 µg/mL (≈ 6.97 µM) | MIC (Staph. aureus Oxford [5]; 18 h): 100 µg/mL (≈ 279 µM) | MIC [6]: 100 µg/mL (≈ 279 µM) | MIC (Strep. pneumoniae CN33): ≥ 100 µg/mL | MIC (P. mirabilis 889): ≥ 100 µg/mL | MIC (E. coli NCTC 10418): > 100 µg/mL | MIC [7]: > 100 µg/mL | MIC [8]: > 100 µg/mL | MIC (E. coli ESS; 18 h): ≥ 100 µg/mL | MIC (M. hyopneumoniae NB12; NB12, 144 h): 10 µg/mL (≈ 27.9 µM) | MIC (M. hyorhinis ATCC 23234): > 10 µg/mL | MIC (M. hyopneumoniae HK (2)): 10 µg/mL (≈ 27.9 µM) | MIC (M. hyopneumoniae LABER): 5 µg/mL (≈ 13.9 µM) | MIC [10]: 5 µg/mL (≈ 13.9 µM)
